In patent US20240101549A1, “N-(2-(4-CYANOTHIAZOLIDIN-3-YL)-2-OXOETHYL)-QUINOLINE-4-CARBOXAMIDES” (AstraZeneca AB, priority 2020, published 2024):
Values after ≈ are worked out from the molar mass of the structure shown. Like-named read-outs stand apart in the source and are kept apart here. Each block holds one compound with its values, some of them ahead of it.

Legend:
[1] = test system: Rat Hepatocytes (rHep); assay: Metabolic stability in rat hepatocytes (rHep); format: in vitro ADME; details: n = 1 or geometric mean of n = 2-3
[2] = Metabolic stability in human liver microsomes (HLM); format: in vitro ADME; details: n = 1 or average of n = 2-3
Method: Metabolic stability in HLM was measured as described in J Comput Aided Mol Des 2015, 29, 795.

[3] = Caco-2 cell permeability; format: in vitro ADME; details: human
Method: (§1) Caco-2 cell permeability was measured as described in Mol Pharm 2017, 14, 1601.

[4] = Kinetic solubility; format: physicochemical; details: kinetic from dmso stock
Method: Kinetic solubility was measured as described in Comput Aided Mol Des 2015, 29, 795.

[5] = test system: Caco-2 cell; assay: Caco-2 cell permeability; format: in vitro ADME; details: bidirectional (ABBA); for Caco2 Bidirectional (ABBA) A to B Papp / Caco2 Bidirectional (ABBA) B to A Papp: n = 1 or average of n = 2-4
Method: as §1

[6] = target: FAP (Macaca fascicularis, UniProt A0A2K5VGH4); assay: FAP plasma inhibition assay, cynomolgus plasma; format: biochemical; details: cynomolgus plasma diluted 1:40, 75 μM Ala-Pro-AMC; n = 1; read-out: FAP Cyno Plasma IC50
Method: D. FAP Plasma Inhibition Assay This assay was adapted from the method described in Example 237 for detection of FAP target engagement enzyme activity in plasma. […] Compounds were tested using 10 CR, 3 fold dilution series from 500 nM FAC. Two replicates for each assay point were run on the same plate. A fluorescence blank read was taken before substrate addition. […] Plates were incubated for 40 min at rt in the dark. […] IC50 values were determined by plotting % inhibition versus log compound concentration.

[7] = Caco-2, AB intrinsic, n = 1 or average of n = 2-4, read-out: Caco2 AB Intrinsic Papp

Sequence of FAP (A0A2K5VGH4 entry or part of it): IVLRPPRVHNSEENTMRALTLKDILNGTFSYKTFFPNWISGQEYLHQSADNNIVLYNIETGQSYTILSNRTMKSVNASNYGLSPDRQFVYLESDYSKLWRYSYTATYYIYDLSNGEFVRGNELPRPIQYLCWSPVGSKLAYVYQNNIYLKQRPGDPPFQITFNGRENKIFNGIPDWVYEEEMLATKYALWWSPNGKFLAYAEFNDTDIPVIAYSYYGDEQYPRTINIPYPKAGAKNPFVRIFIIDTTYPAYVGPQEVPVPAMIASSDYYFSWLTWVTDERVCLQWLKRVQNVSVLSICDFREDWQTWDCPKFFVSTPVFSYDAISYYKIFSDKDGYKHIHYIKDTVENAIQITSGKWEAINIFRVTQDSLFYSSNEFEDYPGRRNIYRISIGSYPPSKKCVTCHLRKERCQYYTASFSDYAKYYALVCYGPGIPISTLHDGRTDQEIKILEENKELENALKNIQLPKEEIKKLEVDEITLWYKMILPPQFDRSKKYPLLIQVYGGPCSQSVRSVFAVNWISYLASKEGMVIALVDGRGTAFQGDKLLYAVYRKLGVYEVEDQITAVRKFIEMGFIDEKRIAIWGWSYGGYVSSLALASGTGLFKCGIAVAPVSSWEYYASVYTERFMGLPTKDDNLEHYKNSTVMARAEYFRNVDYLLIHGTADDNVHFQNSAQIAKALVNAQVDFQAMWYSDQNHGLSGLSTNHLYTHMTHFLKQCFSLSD

Structure (SMILES): COC1CCCN(c2ccc3nccc(C(=O)NCC(=O)N4CSC[C@H]4C#N)c3c2)C1 (mixture of isomers) [Example 41, N-(2-((R)-4-Cyanothiazolidin-3-yl)-2-oxoethyl)-6-((RS)-3-methoxypiperidin-1-yl)quinoline-4-carboxamide]
rHep CLint [1]: 12 μL/min/1E6
microsomal CLint [2]: 30 µL/min/mg
Papp A→B [3, 7]: 16 ×10⁻⁶ cm/s

Structure (SMILES): CC1CC(F)(F)CCN1c1ccc2nccc(C(=O)NCC(=O)N3CSC[C@H]3C#N)c2c1 (mixture of isomers) [Example 44, N-(2-((R)-4-Cyanothiazolidin-3-yl)-2-oxoethyl)-6-((RS)-4,4-difluoro-2-methylpiperidin-1-yl)quinoline-4-carboxamide]
rHep CLint [1]: 160 μL/min/1E6

Structure (SMILES): CC1N(c2ccc3nccc(C(=O)NCC(=O)N4CSC[C@H]4C#N)c3c2)CC1(F)F (mixture of isomers) [Example 159, N-(2-((R)-4-Cyanothiazolidin-3-yl)-2-oxoethyl)-6-((RS)-3,3-difluoro-2-methylazetidin-1-yl)quinoline-4-carboxamide]
rHep CLint [1]: 47 μL/min/1E6

Structure (SMILES): N#C[C@@H]1CSCN1C(=O)CNC(=O)c1ccnc2ccc(-c3ccnn3C3CCCCO3)cc12 (mixture of isomers) [Example 176]
rHep CLint [1]: 15 μL/min/1E6
solubility [4]: 800 µM (≈ 381 µg/mL)

Structure (SMILES): CC1(F)CCN(c2ccc3nccc(C(=O)NCC(=O)N4CSC[C@H]4C#N)c3c2)C1 (mixture of isomers) [Example 198, N-(2-((R)-4-Cyanothiazolidin-3-yl)-2-oxoethyl)-6-((RS)-3-fluoro-3-methylpyrrolidin-1-yl)quinoline-4-carboxamide]
rHep CLint [1]: 22 μL/min/1E6
microsomal CLint [2]: 20 µL/min/mg

Structure (SMILES): N#C[C@@H]1CSCN1C(=O)CNC(=O)c1ccnc2ccc(N3CCOCC3C(F)(F)F)cc12 (single isomer, unassigned) [Example 84, N-(2-((R)-4-Cyanothiazolidin-3-yl)-2-oxoethyl)-6-((R*)-3-(trifluoromethyl)-morpholino)quinoline-4-carboxamide]
rHep CLint [1]: 26 μL/min/1E6

Structure (SMILES): N#C[C@@H]1CSCN1C(=O)CNC(=O)c1ccnc2ccc(N3CCOCC3C(F)(F)F)cc12 (single isomer, unassigned) [Example 85, N-(2-((R)-4-Cyanothiazolidin-3-yl)-2-oxoethyl)-6-((R*)-3-(trifluoromethyl)-morpholino)quinoline-4-carboxamide]
rHep CLint [1]: 35 μL/min/1E6
solubility [4]: 800 µM (≈ 384 µg/mL)

Structure (SMILES): N#C[C@@H]1CSCN1C(=O)CNC(=O)c1ccnc2ccc(N3CC4(CCC4)C3)cc12 [Example 17, (R)—N-(2-(4-Cyanothiazolidin-3-yl)-2-oxoethyl)-6-(2-azaspiro[3.3]heptan-2-yl)quinoline-4-carboxamide]
microsomal CLint [2]: 48 µL/min/mg

Structure (SMILES): CC1(C)COC12CN(c1ccc3nccc(C(=O)NCC(=O)N4CSC[C@H]4C#N)c3c1)C2 [Example 18, (R)—N-(2-(4-Cyanothiazolidin-3-yl)-2-oxoethyl)-6-(3,3-dimethyl-1-oxa-6-azaspiro[3.3]heptan-6-yl)quinoline-4-carboxamide]
Caco2 Bidirectional (ABBA) Efflux Ratio [5]: 34
Caco2 Bidirectional (ABBA) A to B Papp [5]: 0.90 1E−6 · cm/s
Caco2 Bidirectional (ABBA) B to A Papp [5]: 31 1E−6 · cm/s
Papp A→B [3, 7]: 13 ×10⁻⁶ cm/s

Structure (SMILES): COC1(C)CCN(c2ccc3nccc(C(=O)NCC(=O)N4CSC[C@H]4C#N)c3c2)CC1 [Example 42, (R)—N-(2-(4-Cyanothiazolidin-3-yl)-2-oxoethyl)-6-(4-methoxy-4-methylpiperidin-1-yl)quinoline-4-carboxamide]
solubility [4]: 850 µM (≈ 386 µg/mL)

Structure (SMILES): N#C[C@@H]1CSCN1C(=O)CNC(=O)c1ccnc2ccc(N3CCOC4(CCOCC4)C3)cc12 [Example 99, (R)—N-(2-(4-cyanothiazolidin-3-yl)-2-oxoethyl)-6-(1,9-dioxa-4-azaspiro[5.5]undecan-4-yl)quinoline-4-carboxamide]
Caco2 Bidirectional (ABBA) Efflux Ratio [5]: 46
Caco2 Bidirectional (ABBA) A to B Papp [5]: 0.46 1E−6 · cm/s
Caco2 Bidirectional (ABBA) B to A Papp [5]: 21 1E−6 · cm/s

Structure (SMILES): N#C[C@@H]1CSCN1C(=O)CNC(=O)c1ccnc2ccc(N3CC4(CC(F)C4)C3)cc12 [Example 155, (R)—N-(2-(4-Cyanothiazolidin-3-yl)-2-oxoethyl)-6-(6-fluoro-2-azaspiro[3.3]heptan-2-yl)quinoline-4-carboxamide]
Caco2 Bidirectional (ABBA) Efflux Ratio [5]: 6.5
Caco2 Bidirectional (ABBA) A to B Papp [5]: 4.2 1E−6 · cm/s
Caco2 Bidirectional (ABBA) B to A Papp [5]: 27 1E−6 · cm/s

Structure (SMILES): N#C[C@@H]1CSCN1C(=O)CNC(=O)c1ccnc2ccc(N3CC4(COC4)C3)cc12 [Example 166, (R)—N-(2-(4-Cyanothiazolidin-3-yl)-2-oxoethyl)-6-(2-oxa-6-azaspiro[3.3]heptan-6-yl)quinoline-4-carboxamide]
Caco2 Bidirectional (ABBA) Efflux Ratio [5]: 24
Caco2 Bidirectional (ABBA) A to B Papp [5]: 0.56 1E−6 · cm/s
Caco2 Bidirectional (ABBA) B to A Papp [5]: 13 1E−6 · cm/s
Papp A→B [3, 7]: 2 ×10⁻⁶ cm/s
IC50 [6]: 0.3 nM

Now from value to compound:

rHep CLint [1]: <1 μL/min/1E6
microsomal CLint [2]: < 3 µL/min/mg
Papp A→B [3, 7]: 1.2 ×10⁻⁶ cm/s
solubility [4]: 50 µM (≈ 22.4 µg/mL)
Structure (SMILES): N#C[C@@H]1CSCN1C(=O)CNC(=O)c1ccnc2ccc(N3CC(O)C(F)(F)C3)cc12 (mixture of isomers) [Example 224, N-(2-((R)-4-Cyanothiazolidin-3-yl)-2-oxoethyl)-6-((RS)-3,3-difluoro-4-hydroxypyrrolidin-1-yl)quinoline-4-carboxamide]

rHep CLint [1]: 250 μL/min/1E6
microsomal CLint [2]: > 300 µL/min/mg
Structure (SMILES): N#C[C@@H]1CSCN1C(=O)CNC(=O)c1ccnc2ccc(N3CCCC3C3CC3)cc12 (single isomer, unassigned) [Example 199, N-(2-((R)-4-Cyanothiazolidin-3-yl)-2-oxoethyl)-6-((R*)-2-cyclopropyl-pyrrolidin-1-yl)quinoline-4-carboxamide]

rHep CLint [1]: >300 μL/min/1E6
HLM CLint [2]: >300 µL/min/mg
Structure (SMILES): N#C[C@@H]1CSCN1C(=O)CNC(=O)c1ccnc2ccc(N3CCCC3C3CC3)cc12 (single isomer, unassigned) [Example 200, N-(2-((R)-4-Cyanothiazolidin-3-yl)-2-oxoethyl)-6-((R*)-2-cyclopropyl-pyrrolidin-1-yl)quinoline-4-carboxamide]

rHep CLint [1]: <1 μL/min/1E6
microsomal CLint [2]: < 3 µL/min/mg
Papp A→B [3, 7]: 4.8 ×10⁻⁶ cm/s
solubility [4]: 90 µM (≈ 38.1 µg/mL)
Structure (SMILES): CC1CCN(c2ccc3nccc(C(=O)NCC(=O)N4CSC[C@H]4C#N)c3c2)C1=O (single isomer, unassigned) [Example 201, N-(2-((R)-4-Cyanothiazolidin-3-yl)-2-oxoethyl)-6-((R*)-3-methyl-2-oxopyrrolidin-1-yl)quinoline-4-carboxamide]

rHep CLint [1]: <1 μL/min/1E6
Structure (SMILES): CC1CCN(c2ccc3nccc(C(=O)NCC(=O)N4CSC[C@H]4C#N)c3c2)C1=O (single isomer, unassigned) [Example 202, N-(2-((R)-4-Cyanothiazolidin-3-yl)-2-oxoethyl)-6-((R*)-3-methyl-2-oxopyrrolidin-1-yl)quinoline-4-carboxamide]

rHep CLint [1]: 2.9 μL/min/1E6
Papp A→B ([3]; Caco-2, bidirectional (ABBA), A to B, n = 1 or average of n = 2-4, read-out: Caco2 Bidirectional (ABBA) A to B Papp): 0.4 ×10⁻⁶ cm/s
Papp B→A ([3]; Caco-2, bidirectional (ABBA), B to A, n = 1 or average of n = 2-4, read-out: Caco2 Bidirectional (ABBA) B to A Papp): 8 ×10⁻⁶ cm/s
efflux ratio ([3]; Caco-2, bidirectional (ABBA), read-out: Caco2 Bidirectional (ABBA) Efflux Ratio): 20
Structure (SMILES): CC1CCCN(c2ccc3nccc(C(=O)NCC(=O)N4CSC[C@H]4C#N)c3c2)C1=O (single isomer, unassigned) [Example 203, N-(2-((R)-4-Cyanothiazolidin-3-yl)-2-oxoethyl)-6-((R*)-3-methyl-2-oxopiperidin-1-yl)quinoline-4-carboxamide]

rHep CLint [1]: 1.8 μL/min/1E6
microsomal CLint [2]: 8 µL/min/mg
Structure (SMILES): CC1CCCN(c2ccc3nccc(C(=O)NCC(=O)N4CSC[C@H]4C#N)c3c2)C1=O (single isomer, unassigned) [Example 204, N-(2-((R)-4-Cyanothiazolidin-3-yl)-2-oxoethyl)-6-((R*)-3-methyl-2-oxopiperidin-1-yl)quinoline-4-carboxamide]

microsomal CLint [2]: 27 µL/min/mg
solubility [4]: 230 µM (≈ 99.2 µg/mL)
Structure (SMILES): N#C[C@@H]1CSCN1C(=O)CNC(=O)c1ccnc2ccc(N3C[C@@H](F)[C@H](F)C3)cc12 (single isomer, unassigned) [Example 214]
